Test [1] concerns the target T1, Adrenergic β2 (H292 cells) (Homo sapiens, UniProt P07550).
T1 construct: endogenous in cells; host or cells: H292 cells
As to the kind of experiment: Assay for Adrenergic β2 Mediated cAMP Production (concentration response, AlphaScreen cAMP detection). It is filed as cell-based. The note with it: for EC50: cAMP production, 60 minutes at room temperature, 300 μM rolipram, read-out: β2 pEC50 (converted); for β2 Intrinsic activity: fraction relative to the maximum activity determined for formoterol. The method in brief: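 H292 cells plated overnight, pre-treated with rolipram (300 μM final) 10 min, then compound 60 min at room temperature in HBSS/10 mM HEPES pH7.4/5 mM glucose, 1% DMSO. Lysate cAMP read by AlphaScreen against a cAMP standard curve; 4-parameter fit gives pEC50 and intrinsic activity as fraction of formoterol maximum.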

Test [2] concerns the target T2, human muscarinic acetylcholine M3 receptor (M3-ACh) (Homo sapiens, UniProt P20309).
T2 construct: expressed in transfected cells; host or cells: CHO-K1 (Chinese Hamster Ovary) cell membranes
As to the kind of experiment: Muscarinic 3 Receptor Binding Assay ([3H]NMS competition, SPA). To be noted: [3H]NMS 0.1 nM, CHO-K1 cell membranes, 16 hours at room temperature; read-out: M3 pIC50 (converted). The method in brief: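 Competition SPA binding of 0.1 nM [3H]NMS (quarter Kd) to membranes from CHO-K1 cells expressing human M3, in 20 mM HEPES pH 7.4, 5 mM MgCl2, 1% DMSO. Incubated 16 h at room temperature; non-specific binding with 1 µM atropine. pIC50 from 50% reduction of specific binding.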

Test [3] deals with T1, Adrenergic β2 (H292 cells). Kind of test: Adrenergic β2 Mediated cAMP Production, single concentration 1 μM. It is filed as cell-based. To be noted: NCI-H292, 1 μM compound, percentage of the maximum response generated by 1E-07M formoterol, read-out: β2 (% effect at 1 μM). The method in brief: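 H292 cells were plated overnight, pre-treated with 300 μM rolipram for 10 min, then exposed to compound at 1 μM final (1% DMSO) for 60 min at room temperature. cAMP in the lysates was measured by AlphaScreen against a standard curve and expressed as % of the maximal response to 1E-07M formoterol.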

The target of test [4] is T2, human muscarinic acetylcholine M3 receptor (M3-ACh). Kind of test: Muscarinic 3 Receptor Binding Assay, % inhibition specific binding at 1 μM. The note with it: 1 μM compound, % inhibition specific [3H]-NMS binding. The method in brief:
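Competition binding of 0.1 nM [3H]NMS to membranes from CHO-K1 cells expressing human M3, SPA format, with compound at 1 μM in 20 mM HEPES pH 7.4, 5 mM MgCl2, 1% DMSO. Incubated 16 h at room temperature; non-specific binding defined by 1 μM atropine; value is % inhibition of specific binding.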

T2 sequence (P20309 whole entry): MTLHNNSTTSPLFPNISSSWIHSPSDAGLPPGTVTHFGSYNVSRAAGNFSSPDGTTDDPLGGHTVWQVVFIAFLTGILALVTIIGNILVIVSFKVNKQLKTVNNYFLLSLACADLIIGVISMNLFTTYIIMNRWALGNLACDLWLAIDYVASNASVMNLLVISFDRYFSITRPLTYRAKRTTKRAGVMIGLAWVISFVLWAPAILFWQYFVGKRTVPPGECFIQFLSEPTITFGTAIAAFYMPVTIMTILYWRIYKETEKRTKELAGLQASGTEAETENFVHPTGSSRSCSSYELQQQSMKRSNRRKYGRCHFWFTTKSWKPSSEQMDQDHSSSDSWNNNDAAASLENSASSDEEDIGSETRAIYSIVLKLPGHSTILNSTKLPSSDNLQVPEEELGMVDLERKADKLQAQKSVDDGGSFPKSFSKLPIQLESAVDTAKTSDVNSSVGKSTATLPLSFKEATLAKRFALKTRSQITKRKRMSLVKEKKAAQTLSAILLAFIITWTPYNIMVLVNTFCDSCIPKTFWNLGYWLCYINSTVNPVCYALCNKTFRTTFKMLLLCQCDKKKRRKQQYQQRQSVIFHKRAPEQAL
T1 sequence (P07550 whole entry): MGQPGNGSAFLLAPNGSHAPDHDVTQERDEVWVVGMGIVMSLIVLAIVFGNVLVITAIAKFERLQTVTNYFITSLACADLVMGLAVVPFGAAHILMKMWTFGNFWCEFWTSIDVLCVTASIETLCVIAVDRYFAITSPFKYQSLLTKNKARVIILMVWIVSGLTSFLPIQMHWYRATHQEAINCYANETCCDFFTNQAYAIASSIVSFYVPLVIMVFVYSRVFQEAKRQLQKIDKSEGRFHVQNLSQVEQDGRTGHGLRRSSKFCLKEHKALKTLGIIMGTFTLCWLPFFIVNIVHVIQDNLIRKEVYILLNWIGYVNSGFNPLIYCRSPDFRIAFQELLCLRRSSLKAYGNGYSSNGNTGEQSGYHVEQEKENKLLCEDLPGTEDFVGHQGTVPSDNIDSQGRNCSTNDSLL

The term inhibition denotes the percentage by which the read-out fell short of the control. Regarding `O=C(c1ccc(Cl)s1)N1CCOC2(CCN(Cc3cc(F)cc(CCNC[C@H](O)c4ccc(O)c5[nH]c(=O)sc45)c3)CC2)C1` [Example 124, (R)-7-(2-(3-((4-(5-chlorothiophene-2-carbonyl)-1-oxa-4,9-diazaspiro[5.5]undecan-9-yl)methyl)-5-fluorophenethylamino)-1-hydroxyethyl)-4-hydroxybenzo[d]thiazol-2(3H)-one], in test [1], the EC50 was 3.98 nM and the “β2 Intrinsic activity” value is 0.9. Also, the IC50 in test [2] was 12.6 nM. In test [3], the activation at 1 µM was 100%. In addition, testing at 1 µM in test [4] gave an inhibition of 97%.
The matching figures for `O=C(c1ccc2cccnc2c1)N1CCOC2(CCN(Cc3cc(F)cc(CCNC[C@H](O)c4ccc(O)c5[nH]c(=O)sc45)c3)CC2)C1` [Example 178, (R)-7-(2-(3-fluoro-5-((4-(quinoline-7-carbonyl)-1-oxa-4,9-diazaspiro[5.5]undecan-9-yl)methyl)phenethylamino)-1-hydroxyethyl)-4-hydroxybenzo[d]thiazol-2(3H)-one]: 5.01 nM, 0.8, 31.6 nM, 94% and 89%.
`O=C(c1csc(C2CCC2)n1)N1CCOC2(CCN(CCCCCCCCCNC[C@H](O)c3ccc(O)c4[nH]c(=O)sc34)CC2)C1` [Example 220, (R)-7-(2-(9-(4-(2-cyclobutylthiazole-4-carbonyl)-1-oxa-4,9-diazaspiro[5.5]undecan-9-yl)nonylamino)-1-hydroxyethyl)-4-hydroxybenzo[d]thiazol-2(3H)-one]: in test [1], the EC50 was 25.1 nM and the “β2 Intrinsic activity” value turned out to be 0.8. In test [2], the IC50 was 0.631 nM. In addition, the activation at 1 µM in test [3] was found to be 109%. For the same compound, the inhibition at 1 µM in test [4] was found to be 100%.

Values taken from patent publication US8148373B2, “Compounds” (AstraZeneca AB, priority 2008, dated 2012).
